ChEMBL document CHEMBL1201862, “PubChem BioAssay data set” (2004)
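Each compound was tested at five concentrations against cells in 96-well plates for 48 hours. GI50: concentration for 50% inhibition of growth.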 Activity calls are given as the source filed them. Cut-off read from the data, not from the text of the source: active = GI50 up to about 1.1 µM and inactive = higher.

Tests used:
Experiment in all cases: inhibition of tumour cell growth, NCI panel, 48 h
SK-MEL-28 = system: SK-MEL-28
CCRF-CEM = system: CCRF-CEM
U-251 = system: U-251
SNB-75 = system: SNB-75
KM12 = system: KM12
OVCAR-5 = system: OVCAR-5
OVCAR-4 = system: OVCAR-4
IGROV-1 = system: IGROV-1
RXF 393 = system: RXF 393
UO-31 = system: UO-31
HCC 2998 = system: HCC 2998
TK-10 = system: TK-10
K562 = system: K562
SK-MEL-2 = system: SK-MEL-2
SN12C = system: SN12C
HCT-116 = system: HCT-116
SK-MEL-5 = system: SK-MEL-5
SR = system: SR
UACC-62 = system: UACC-62
OVCAR-3 = system: OVCAR-3

Measured: GI50

COc1ccc(-c2cc3[nH]nc(N)c3c(=O)o2)cc1
inactive: SK-MEL-28 > 100 µM | CCRF-CEM > 100 µM | U-251 89.9 µM | SNB-75 97.3 µM | KM12 > 100 µM | OVCAR-5 > 100 µM | OVCAR-4 > 100 µM | IGROV-1 > 100 µM | RXF 393 55.3 µM | UO-31 > 100 µM | HCC 2998 > 100 µM | TK-10 > 100 µM | K562 > 100 µM | SK-MEL-2 > 100 µM | SN12C > 100 µM | HCT-116 > 100 µM | SK-MEL-5 > 100 µM | SR > 100 µM

O=C1C=C(C2OC(CO)C(O)C2O)C(=O)N1 (centres undefined)
inactive: SK-MEL-28 > 100 µM | CCRF-CEM 32.5 µM | U-251 > 100 µM | SNB-75 > 100 µM | KM12 > 100 µM | OVCAR-5 > 100 µM | OVCAR-4 > 100 µM | UACC-62 > 100 µM | IGROV-1 > 100 µM | RXF 393 > 100 µM | UO-31 > 100 µM | HCC 2998 > 100 µM | OVCAR-3 > 100 µM | K562 47.6 µM | SK-MEL-2 > 100 µM | SN12C > 100 µM | HCT-116 > 100 µM | SK-MEL-5 > 100 µM

C/C(=N\Oc1cc(Cl)ncn1)c1ccccn1
inactive: SK-MEL-28 39.5 µM | CCRF-CEM 34.4 µM | U-251 60.5 µM | SNB-75 > 100 µM | KM12 > 100 µM | OVCAR-5 37.8 µM | OVCAR-4 > 100 µM | UACC-62 47.5 µM | IGROV-1 21.9 µM | RXF 393 4 µM | UO-31 52 µM | HCC 2998 17.4 µM | OVCAR-3 20.2 µM | TK-10 59 µM | K562 56.5 µM | SK-MEL-2 14.1 µM | SN12C > 100 µM | HCT-116 > 100 µM | SK-MEL-5 28.1 µM | SR 31.7 µM

COC1OC2=CCC3C(=O)NC(=O)C3C2[C@H](OCc2ccccc2)C1OCc1ccccc1 (some centres undefined)
inactive: SK-MEL-28 1.84 µM | CCRF-CEM 1.15 µM | U-251 18.7 µM | SNB-75 17.3 µM | KM12 5.9 µM | OVCAR-5 15.7 µM | OVCAR-4 3.84 µM | UACC-62 2.46 µM | IGROV-1 2.04 µM | RXF 393 1.61 µM | UO-31 17.7 µM | HCC 2998 3.74 µM | OVCAR-3 1.71 µM | TK-10 1.72 µM | K562 1.82 µM | SK-MEL-2 5.36 µM | SN12C 1.74 µM | HCT-116 1.55 µM | SK-MEL-5 19 µM | SR 2.1 µM

CC(=O)OCc1nnn2c1CCC2
inactive: SK-MEL-28 > 100 µM | CCRF-CEM > 100 µM | U-251 > 100 µM | SNB-75 > 100 µM | KM12 > 100 µM | OVCAR-5 > 100 µM | OVCAR-4 > 100 µM | UACC-62 > 100 µM | IGROV-1 > 100 µM | RXF 393 > 100 µM | UO-31 > 100 µM | HCC 2998 > 100 µM | OVCAR-3 > 100 µM | TK-10 > 100 µM | K562 > 100 µM | SK-MEL-2 > 100 µM | SN12C > 100 µM | HCT-116 > 100 µM | SK-MEL-5 > 100 µM | SR > 100 µM

COc1ccc(CN2C(=O)C(=O)N(C)C2=O)c2ccccc12
inactive: SK-MEL-28 > 10 µM | CCRF-CEM > 10 µM | U-251 > 10 µM | SNB-75 > 10 µM | KM12 > 10 µM | OVCAR-5 > 10 µM | OVCAR-4 > 10 µM | UACC-62 > 10 µM | IGROV-1 > 10 µM | RXF 393 > 10 µM | UO-31 > 10 µM | HCC 2998 > 10 µM | OVCAR-3 > 10 µM | TK-10 > 10 µM | K562 > 10 µM | SK-MEL-2 > 10 µM | SN12C > 10 µM | HCT-116 > 10 µM | SK-MEL-5 > 10 µM | SR > 10 µM

CCOC(=O)c1csc(NC(=O)CCN2CCCC2)n1
inactive: SK-MEL-28 > 100 µM | CCRF-CEM > 100 µM | U-251 > 100 µM | SNB-75 > 100 µM | KM12 > 100 µM | OVCAR-5 > 100 µM | OVCAR-4 > 100 µM | UACC-62 > 100 µM | IGROV-1 > 100 µM | RXF 393 > 100 µM | UO-31 > 100 µM | HCC 2998 > 100 µM | OVCAR-3 > 100 µM | TK-10 > 100 µM | K562 > 100 µM | SK-MEL-2 > 100 µM | SK-MEL-5 > 100 µM | SR 78.5 µM
